Consider one cell line from the supplement of paper PMC10307832.

Common to all, as to assay: relative viability (nuclei count vs DMSO), 5 days (fraction); higher = more cells survive
Compound in the test “Carboplatin + Olaparib”: C1CC(C1)(C(=O)O)C(=O)O.[NH2-].[NH2-].[Pt+2] [Carboplatin] + O=C(c1cc(Cc2n[nH]c(=O)c3ccccc23)ccc1F)N1CCN(C(=O)C2CC2)CC1 [Olaparib] (partner 8 µM)
In a few lines:
(§1)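 Five library-drug doses in √10 steps were combined with a fixed anchor-drug dose, or a single drug was given alone, by pin tool to lung cancer cell lines in 1536-well plates the day after seeding. Nuclei were stained and counted after 5 days. Relative viability is the nuclei count in treated wells over that in vehicle wells, taken as the median of duplicate plates.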

Compound in the test “GSK126 + OSI-027”: CC[C@H](C)N1C=C(C2=C(C=C(C=C21)C3=CN=C(C=C3)N4CCNCC4)C(=O)NCC5=C(C=C(NC5=O)C)C)C [GSK126] + COc1cccc2cc(-c3nc([C@H]4CC[C@H](C(=O)O)CC4)n4ncnc(N)c34)[nH]c12 [OSI-027] (partner 0.5 µM)
In a few lines: as §1

Compound in test [1]: C1CC(C1)(C(=O)O)C(=O)O.[NH2-].[NH2-].[Pt+2] [Carboplatin] + CC(=O)c1c(C)c2cnc(Nc3ccc(N4CCNCC4)cn3)nc2n(C2CCCC2)c1=O [Palbociclib] (partner 0.5 µM)
In a few lines:
as §1

Compound in the test “Carboplatin + Crizotinib”: C1CC(C1)(C(=O)O)C(=O)O.[NH2-].[NH2-].[Pt+2] [Carboplatin] + C[C@@H](Oc1cc(-c2cnn(C3CCNCC3)c2)cnc1N)c1c(Cl)ccc(F)c1Cl [Crizotinib] (partner 1 µM)
In a few lines:
as §1

Consider UMC-11, for which the relative viability was determined as 0.72 in the test with Carboplatin + Olaparib (first compound 0.08 µM); 0.573 with Carboplatin + Olaparib (first compound 0.253 µM); 0.433 with Carboplatin + Olaparib (first compound 0.8 µM); 0.381 in the test with Carboplatin + Olaparib (first compound 2.53 µM); 0.345 in the test with Carboplatin + Olaparib (first compound 8 µM); 0.563 in the test with GSK126 + OSI-027 (first compound 0.08 µM). For the same cell line, the relative viability with GSK126 + OSI-027 (first compound 0.253 µM) was found to be 0.522; in the test with GSK126 + OSI-027 (first compound 0.8 µM), 0.484; with GSK126 + OSI-027 (first compound 2.53 µM) it was 0.44; in the test with GSK126 + OSI-027 (first compound 8 µM), 0.43; in test [1] (first compound 0.08 µM), 0.314; in test [1] (first compound 0.253 µM), 0.348. The relative viability in test [1] (first compound 0.8 µM) turned out to be 0.275; in test [1] (first compound 2.53 µM), 0.301; in test [1] (first compound 8 µM), 0.339; with Carboplatin + Crizotinib (first compound 0.08 µM), 0.721; with Carboplatin + Crizotinib (first compound 0.253 µM), 0.652; with Carboplatin + Crizotinib (first compound 0.8 µM), 0.515. For the same cell line, the relative viability is 0.484 in the test with Carboplatin + Crizotinib (first compound 2.53 µM) and 0.301 with Carboplatin + Crizotinib (first compound 8 µM).
